Columns and labels:
PCSK9 = PCSK9 (Homo sapiens, UniProt Q8NBP7); assay: BODIPY-LDL uptake assay in HepG2 cells; type: cell-based; conditions: 5 μg/ml PCSK9, BODIPY-LDL
Method in brief: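 Compounds pre-incubated 60 min with 5 μg/ml PCSK9 (0.2% DMSO), then added to HepG2 cells for 16 h; 1 μg/ml BODIPY-LDL added in serum-free medium for 5 h. Fluorescence (Ex 485/Em 520 nm) normalized to protein; PCSK9-only wells = 0%, no-PCSK9 wells = 100% uptake, giving percent increase in LDL uptake.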

High Fat Diet C57 Mice = assay: LDL-C lowering activity in high fat diet C57 mice; type: in vivo; conditions: Mus musculus, po, 168 h; C57 mice on high fat diet; 30 mg/Kg orally once a day, 7 days treatment, blood on day 7; read-out: % Change Vs Vehicle Control in LDLc
Protocol: LDL-C Lowering Activity—in High Fat Diet C57 Mice
The in-vivo LDL-c lowering for test compound was tested in C57 mice which were kept on high fat diet for 4 weeks and the blood was collected by retro-orbital sinus puncture method under light ether anesthesia on day 0 (pretreatment). Animal are grouped based on LDL-c levels, after that 7 days treatment with vehicle or test compound orally at a dose of 30 mpk dose once a day was given. On completion of treatment on day 7 of the treatment the blood was collected for LDL-c and TC levels measurement.

Sequence of PCSK9 (Q8NBP7 153-692): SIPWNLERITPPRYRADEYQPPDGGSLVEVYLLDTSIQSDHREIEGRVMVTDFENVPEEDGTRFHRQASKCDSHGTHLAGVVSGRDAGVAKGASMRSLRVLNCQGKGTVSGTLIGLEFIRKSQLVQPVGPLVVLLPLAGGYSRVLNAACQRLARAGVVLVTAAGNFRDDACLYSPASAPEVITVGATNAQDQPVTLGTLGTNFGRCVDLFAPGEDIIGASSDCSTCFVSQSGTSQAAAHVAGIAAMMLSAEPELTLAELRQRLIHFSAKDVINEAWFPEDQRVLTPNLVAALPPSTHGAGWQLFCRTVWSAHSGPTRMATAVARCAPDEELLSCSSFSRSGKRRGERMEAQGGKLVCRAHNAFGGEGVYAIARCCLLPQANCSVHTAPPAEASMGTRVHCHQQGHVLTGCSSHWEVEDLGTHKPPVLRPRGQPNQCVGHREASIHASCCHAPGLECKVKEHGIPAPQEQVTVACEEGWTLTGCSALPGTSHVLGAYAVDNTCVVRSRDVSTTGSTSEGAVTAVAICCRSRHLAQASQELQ

| % increase in LDL Uptake (PCSK9; 1 μM test compound) [%] | % increase in LDL Uptake (PCSK9; 10 μM test compound) [%] | % increase in LDL Uptake (PCSK9; 30 μM test compound) [%] | SMILES | change in vivo at 30 mg/kg (High Fat Diet C57 Mice) [%] |
| --- | --- | --- | --- | --- |
| 0 | 73 | 114 | OC1(c2ccc(N3CCC(c4ccc(C(F)(F)F)cc4)CC3)cc2)COC1 [Example 8, 3-(4-(4-(4-(trifluoromethyl)phenyl)piperidin-1-yl)phenyl)oxetan-3-ol] | -30 ± 8 |
| 0 | 273 | 347 | O=C(c1ccc(C2(O)COC2)cc1)N1CC2CC(c3ccc(C(F)(F)F)cc3)CC2C1 (centres unmarked) [Example 10, (4-(3-hydroxyoxetan-3-yl)phenyl)(5-(4-(trifluoromethyl)phenyl)hexahydrocyclopenta[c]pyrrol-2(1H)-yl)methanone] | -15 ± 8 |
| 6 | 59 | 116 | O=C(c1ccc(C2(O)COC2)cc1)N1CC2CN(c3ccc(C(F)(F)F)cc3)CC2C1 (centres unmarked) [Example 11, (4-(3-hydroxyoxetan-3-yl)phenyl)(5-(4-(trifluoromethyl)phenyl)hexahydropyrrolo[3,4-c]pyrrol-2 (1H)-yl)methanone] | -48 ± 5 |
| 27 | 86 | 252 | O=C(c1ccc(C2(O)COC2)cc1)N1CCCC(c2ccc(C(F)(F)F)cc2)C1 (centres unmarked) [Example 34, (4-(3-hydroxyoxetan-3-yl)phenyl)(3-(4-(trifluoromethyl)phenyl)piperidin-1-yl)methanone] | -31 ± 8 |
| 26 | 149 | 147 | COC1(c2ccc(C(=O)N3CCCC(c4ccc(C(F)(F)F)cc4)C3)cc2)COC1 (centres unmarked) [Example 39, (4-(3-methoxyoxetan-3-yl)phenyl)(3-(4-(trifluoromethyl)phenyl)piperidin-1-yl)methanone] | -29 ± 5 |
| 0 | 12 | 5 | CCOC1(c2ccc(C(=O)N3CCC(c4ccc(C(F)(F)F)cc4)CC3)cc2)COC1 [Example 43, (4-(3-ethoxyoxetan-3-yl)phenyl)(4-(4-(trifluoromethyl)phenyl)piperidin-1-yl)methanone] | -27 ± 10 |
| 17 | 189 | 383 | O=C(c1cccc(C2(O)COC2)c1)N1CCC(c2ccc(C(F)(F)F)cc2)CC1 [Example 47, (3-(3-hydroxyoxetan-3-yl)phenyl)(4-(4-(trifluoromethyl)phenyl)piperidin-1-yl)methanone] | -5 ± 7 |
| 4 | 80 | 129 | COC1(c2ccc(C(=O)N3CCN(c4ccc(C(F)(F)F)cc4)CC3)cc2)COC1 [Example 53, (4-(3-methoxyoxetan-3-yl)phenyl)(4-(4-(trifluoromethyl)phenyl)piperazin-1-yl)methanone] | -15 ± 6 |
| 55 | 344 | 257 | COC1(c2cccc(C(=O)N3CC4CN(c5ccc(C(F)(F)F)cc5)CC4C3)c2)COC1 (centres unmarked) [Example 56, (3-(3-methoxyoxetan-3-yl)phenyl)(5-(4-(trifluoromethyl)phenyl)hexahydropyrrolo[3,4-c]pyrrol-2(1H)-yl)methanone] | -5 ± 8 |
| 6 | 32 | 53 | COC1(c2ccc(C(=O)N3CC4CN(c5ccc(C(F)(F)F)cc5)CC4C3)cc2)COC1 (centres unmarked) [Example 57, (4-(3-methoxyoxetan-3-yl)phenyl)(5-(4-(trifluoromethyl)phenyl)hexahydropyrrolo[3,4-c]pyrrol-2(1H)-yl)methanone] | -43 ± 9 |
| 25 | 21 | 43 | CCOC1(c2ccc(C(=O)N3CC4CN(c5ccc(C(F)(F)F)cc5)CC4C3)cc2)COC1 (centres unmarked) [Example 58, (4-(3-ethoxyoxetan-3-yl)phenyl)(5-(4-(trifluoromethyl)phenyl)hexahydropyrrolo[3,4-c]pyrrol-2 (1H)-yl)methanone] | -44 ± 3 |
| 0 | 24 | 159 | O=C(c1cccc(C2(O)COC2)c1)N1CCC(c2ccc(C(F)F)cc2)CC1 [Example 66, (4-(4-(difluoromethyl)phenyl)piperidin-1-yl)(3-(3-hydroxyoxetan-3-yl)phenyl)methanone] | -24 ± 7.1 |
| 10 | 98 | 108 | [2H]C([2H])([2H])OC1(c2ccc(C(=O)N3CCC(c4ccc(C(F)(F)F)cc4)CC3)cc2)COC1 [Example 76, (4-(3-(methoxy-d3)oxetan-3-yl)phenyl)(4-(4-(trifluoromethyl)phenyl)piperidin-1-yl)methanone] | -28 ± 7 |
| 2 | 33 | 55 | O=C(c1ccc(C2(O)COC2)cc1)N1CCC(O)(c2ccc(C(F)(F)F)cc2)CC1 [Example 86, (4-hydroxy-4-(4-(trifluoromethyl)phenyl)piperidin-1-yl)(4-(3-hydroxyoxetan-3-yl)phenyl)methanone] | -28 ± 4 |
| 77 | 115 | 94 | O=C(c1ccc(C2(O)COC2)cc1)N1CC=C(c2ccc(C(F)(F)F)cc2)CC1 [Example 87, (4-(3-hydroxyoxetan-3-yl)phenyl)(4-(4-(trifluoromethyl)phenyl)-5,6-dihydropyridin-1(2H)-yl)methanone] | -36 ± 5 |
| 3 | 39 | 74 | COC1(c2ccc(C(=O)N3Cc4cn(-c5ccc(C(F)(F)F)cc5)nc4C3)cc2)COC1 [Example 90, (4-(3-methoxyoxetan-3-yl)phenyl)(2-(4-(trifluoromethyl)phenyl)-2,6-dihydropyrrolo[3,4-c]pyrazol-5(4H)-yl)methanone] | -5.5 ± 4.5 |
| 19 | 127 | 226 | O=C(c1ccc(C2(O)COC2)cc1)N1CC2=C(C1)CN(c1ccc(C(F)(F)F)cc1)C2 [Example 95, (4-(3-hydroxyoxetan-3-yl)phenyl)(5-(4-(trifluoromethyl)phenyl)-3,4,5,6-tetrahydropyrrolo[3,4-c]pyrrol-2(1H)-yl)methanone] | -16 ± 9 |
| 92 | 130 | 101 | O=C(c1ccc(C2(O)COC2)cc1)N1CC2CC(O)(c3ccc(C(F)(F)F)cc3)CC2C1 (centres unmarked) [Example 105, (5-hydroxy-5-(4-(trifluoromethyl)phenyl)hexahydrocyclopenta[c]pyrrol-2(1H)-yl)(4-(3-hydroxyoxetan-3-yl)phenyl)methanone] | -7 ± 7 |
| 3 | 28 | 43 | [2H]C([2H])([2H])OC1(c2ccc(C(=O)N3CC4CN(c5ccc(C(F)(F)F)cc5)CC4C3)cc2)COC1 (centres unmarked) [Example 134, (4-(3-(methoxy-d3)oxetan-3-yl)phenyl)(5-(4-(trifluoromethyl)phenyl)hexahydropyrrolo[3,4-c]pyrrol-2(1H)-yl)methanone] | -38 ± 7 |
| 0 | 77 | 16 | O=C(c1ccc(C2(O)CCOCC2)cc1)N1CCC(c2ccc(C(F)(F)F)cc2)CC1 [Example 142, (4-(4-hydroxytetrahydro-2H-pyran-4-yl)phenyl)(4-(4-(trifluoromethyl)phenyl)piperidin-1-yl)methanone] | -26 ± 10 |
| 1 | 16 | 77 | COC1(c2ccc(C(=O)N3CCC(c4ccc(C(F)(F)F)cc4)CC3)cc2)CCNCC1 [Example 144, (4-(4-methoxypiperidin-4-yl)phenyl)(4-(4-(trifluoromethyl)phenyl)piperidin-1-yl)methanone] | -66 ± 10 |
| 42 | 37 | 60 | O=C(Nc1cccc(C2(O)COC2)c1)N1CC2CN(c3ccc(C(F)(F)F)cc3)CC2C1 (centres unmarked) [Example 182, N-(3-(3-hydroxyoxetan-3-yl)phenyl)-5-(4-(trifluoromethyl)phenyl) hexahydropyrrolo[3,4-c]pyrrole-2(1H)-carboxamide] | -5 ± 11 |
| 19 | 117 | 250 | O=C(c1ccc(C2(O)COC2)cc1)N1CCCN(c2ccc(C(F)(F)F)cc2)CC1 [Example 184, (4-(3-hydroxyoxetan-3-yl)phenyl)(4-(4-(trifluoromethyl)phenyl)-1,4-diazepan-1-yl)methanone] | -7 ± 7 |

— US20230089247A1, “NOVEL COMPOUNDS SUITABLE FOR THE TREATMENT OF DYSLIPIDEMIA” (ZYDUS LIFESCIENCES LIMITED, priority 2019, published 2023)
